Patent US20110113495A1, “SCREENING METHOD FOR AGENTS SUITABLE FOR PROPHYLAXIS AND THERAPY OF ALZHEIMER'S DISEASE (AD)” (priority 2008, published 2011)
“Also recorded” adds a separate entry of the source.

Tests used:
[1] = system: primary hippocampal rat neurons; test: Toxicity test (MultiTox-Fluor) with primary hippocampal rat neurons; type: cell-based; conditions: normalized peptide concentration, 48 h
Method: Hippocampi from P0-P1 Wistar rat pups were used for primary neuronal dissociated cultures. Tissue was dissected in HBSS containing Ca^2+ and Mg^2+ and incubated with an enzyme solution containing 1 mM CaCl2, 0.5 mM EDTA Ph 8.0, 2 mg/ml Cystein and 200-250 units papain (Worthington) in BME for 60 min at 37° C. Supernatant was removed and cells were incubated in inactivation solution (2.5 mg/ml BSA, 2.5 mg/ml Trypsin inhibitor (both Sigma) and 10% FCS in BME) for 5 min at. RT. Tissue clumps were dissociated by repeated passage through 1 ml pipettes. Cells were centrifuged for 10 min at 12000 rpm, 4° C. and resuspended in Neurobasal A medium supplemented with 2% B27, 2 mM Glutamax and 0.2% Penicillin/Streptomycin (all Gibco). Neurons were cultured on glia cell feeder layers in 96 well plates with 5×10^3 cells in 100 μl medium. For feeder layer cultures rat P0-P1 cortices were prepared as described above and cultured at a density of 1×10^6 cells in a T75 flask for at least one week in BME medium supplemented with 10% FCS, 5 mM glucose, 1 mM Glutamax, 10 mM Hepes, 2.5 μg/ml insulin, 0.2% Penicillin/Streptomycin. Cells were trypsinized and 2×10^3 cells per well were seeded in 96 wells plates four days before neurons were added.
After ten days of incubation neuronal cultures were treated with Aβ1-42 freshly dissolved in H2O or with SEC fractions for another 48 h. Neuronal viability was detected by using MultiTox-Fluor Multiplex Cytotxicity assay (Promega) as recommended by the producer.
Cells treated with buffer only were set as non-toxic.

[2] = system: acute hippocampal rat brain sections or slices (area CA1 fEPSPs); test: Long term potentiation (LTP) of acute hippocampal rat brain slices; conditions: slices incubated with 500 nM peptide 20 min prior to tetanisation
Method: Hippocampal slices were prepared from 3-6 week old Wistar rats. Rats were decapitated under ether anesthesia. The brain was removed quickly and sectioned into 300 μm thick slices using a vibroslicer (Leica). The slices were maintained at room temperature in a holding chamber containing oxygenated artificial cerebrospinal fluid (ACSF; 129 mM NaCl, 1 mM NaH2PO4, 10 mM Glucose, 1.8 mM MgSO4, 1.6 mM CaCl2, 3 mM KCl, NaHCO3 21 mM). (Ringer: 119 mM NaCl, 1 mM NaH2PO4, 10 mM Glucose, 1.3 mM MgSO4, 2.5 mM CaCl2, 2.5 mM KCl, NaHCO3 26 mM) Ph 7.2-7.4 Osmolarität 0.28-0.31 Osmol/kg.
After at least 1 h equilibration, slices were transferred into submerged recording chamber and continuously perfuse with room temperature oxygenated ACSF at 3 ml/min throughout the experiments. […] Peptide was not washed during the experiment.
Field excitatory postsynaptic potentials (fEPSPs) were recorded of stratum radiatum area CA1 evoked by Schaffer collateral stimulation with ACSF filled electrodes. Two independent pathways were measured whereas two stimulating electrodes lay parallel to each other.
Baseline responses were collected using test pulses that yield 30-40% of the maximal fEPSP slope. LTP was induced by Theta brust stimulation (TBS) of one of the two pathways. The inter-theta burst stimulation interval was 20 sec and four TBSs were applied to induce LTP. TBS consisted of 10 bursts delivered at 5 Hz. Each burst consisted of four pulses delivered at 100 Hz with a pulse-duration of 0.2 msec. (Evers M., Salmen B., Schachner M., 2002 J. Neuroscience)
The amount of LTP was described as percent changes of (EPSP slopes after TBS normalized to baseline values with an additional subtraction of the second, unstimulated pathway. Slopes were analysed using IGOR program.
In order to assay whether Aβ oligomers show an effect on learning and commemoration LTP (long term potentiation) of acute hippocampal sections of rat brains was determined. Several recent publications report on the inhibition of LTP by Aβ1-42. This effect can be equated with cognitive deficiencies observed for AD patients. In order to further improve these performance tests and to minimize possible side effects of the peptides on the general network plasticity of the sections, two independent neuronal pathways were assayed. Whereas the first pathway was stimulated for inducing LTP, the second one was assayed unstimulated as a control. It could be confirmed that Aβ peptides inhibit LTP.

[3] = system: SH-SY5Y cells (human neuroblastoma cells); test: Toxicity test (MTT) with human neuroblastoma cells; type: cell-based; conditions: 10 μM peptide or SEC fractions, 12 h
Method: SH—SY5Y cells were routinely cultured in DMEM/Ham'sF12 medium (PAA) supplemented with 10% (v/v) bovine calf serum, 2 mM glutamine, 0.1 mM non-essential amino acids and 0.5 mM sodium pyruvate in a 5% CO2 humidified atmosphere at 37° C.
Cells were plated at a density of 1.000 cells per well in 100 μl of fresh medium on 96-well plates. After 48 h medium was replaced by DMEM/Ham's F12 with 100 Uml^−1 penicillin and 10 μg streptomycin including 10 μM peptide, freshly dissolved in H2O containing 0.125% NH3 or fractions received by size exclusion chromatography. Probe and control were incubated for 12 h. Cell mediated reduction of 3-(4,5-dimethylthiazol-2-yl)-2,5-diphenyltetrazolium bromide (MTT) was used to monitor Aβ toxicity by addition of 10 μl of a 5 mgml^−1 MTT stock solution and incubation for further 1-2 h. Before measuring the absorbance of blue formazan at 562 nm using an automatic micro plate reader, cells were lysed with 50 μl DMSO for 10 minutes at room temperature.
The toxic effects of various oligomers on human neuroblastoma cells was determined by use of the MTT test allowing to quantify the toxicity.

[4] = Size exclusion chromatography of freshly dissolved Aβ1-42 peptides (oligomer size distribution); type: physicochemical; conditions: freshly dissolved peptide 1 mg/ml, Superose 12 column, 1×PBS
Method: In order to discriminate the various oligomeric forms of Aβ wildtype and mutant peptides, a size exclusion chromatography was performed. Therefore, a Superose 12 column (Amersham Bioscience) was equilibrated with 1×PBS (137 mM NaCl, 2.7 mM KCl, 10 mM Na2HPO4, 2 mM KH2PO4) under conditions recommended by the manufacturer. Thereafter 1 mg peptide was monomerized with 50 μl concentrated formic acid and evaporated. Peptides were solubilized in H2O containing 0.125% NH3 to a final concentration of 1 mg/ml.
A volume of 500 μl was centrifuged at maximal speed for 10 minutes and loaded on the column with a flow rate of 0.5 ml/min. For determination of the peptide concentration, fractions were tested with Bradford-, BCA-assay and dot blot analysis. The collected fractions were immediately applied for further analysis.
In this study it was investigated to what extent the GxxxG motif effects the aggregation of Aβ1-42 peptides. Aβ1-42 peptides and the oligomers were separated by use of SEC.

| Substance | toxic effect (Multi-tox) [1] | LTP induction after theta burst stimulation [2] | toxic effect (MTT) [3] | oligomer size distribution / aggregation by SEC [4] | oligomer size distribution / aggregation by SEC ([4]; listed as Aβ1-42) | LTP induction after theta burst stimulation ([2]; listed as tetramers of the Aβ1-42G33A peptide) | oligomer size distribution / aggregation by SEC ([4]; listed as G33A) |
| --- | --- | --- | --- | --- | --- | --- | --- |
| Aβ1-42 tetramers: tetramers (SEC fraction) of wild type Aβ1-42 peptide [reference compound] | highest toxicity | cause a measurable loss of cognitive performance | highest toxicity | – | – | – | – |
| Aβ1-42 wt: wild type amyloid beta 1-42 peptide containing the G29xxxG33 motif [reference compound] | strong toxic effect | no LTP is induced | strong toxic effect | immediately aggregates to 4- and 6-mers | 4- to 6mers | – | – |
| Aβ1-42G29/33A: Aβ1-42 double mutant G29/33A | weak toxicity | – | only weak toxicity | Most of the oligomers have a low MW, but large amounts of oligomers having a higher MW are already visible | – | – | – |
| Aβ1-42G29A: Aβ1-42 peptide with mutation at position 29 (G to A) | strong toxic effect | – | strong toxic effect | – | – | – | – |
| Aβ1-42G33A tetramers: tetramers of the Aβ1-42G33A peptide | – | correspond to the results obtained for Aβ1-42G331 | no toxic effects were observed | – | – | LTP could be induced | – |
| Aβ1-42G33A: Aβ1-42 peptide with glycine at position 33 replaced by alanine | – | – | – | shift to oligomers with a higher MW | – | – | minor amounts of tetramers are still detectable |
| Aβ1-42G331: Aβ1-42 peptide with glycine at position 33 replaced by isoleucine | – | induced LTP shows the same value as the control; also recorded: LTP could be induced | – | – | – | – | – |
